Experimental data taken from PubChem BioAssay (NCI).
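Test compounds were applied to cells in 96-well plates for 48 hours at 5 doses. At the GI50, growth is halved. TGI: concentration producing complete growth inhibition.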

Tests used:
Test in all cases: inhibition of tumour cell growth, NCI panel, 48 h
MDA-MB-468 breast = system: MDA-MB-468 breast
UACC-62 melanoma = system: UACC-62 melanoma
LOX IMVI melanoma = system: LOX IMVI melanoma
U251 CNS = system: U251 CNS
M14 melanoma = system: M14 melanoma
HL-60(TB) leukemia = system: HL-60(TB) leukemia
K-562 leukemia = system: K-562 leukemia
SF-539 CNS = system: SF-539 CNS
HS 578T breast = system: HS 578T breast
PC-3 prostate = system: PC-3 prostate
SNB-19 CNS = system: SNB-19 CNS
SF-295 CNS = system: SF-295 CNS
A498 renal = system: A498 renal
SNB-75 CNS = system: SNB-75 CNS
HOP-62 NSCLC = system: HOP-62 NSCLC
HCT-116 colon = system: HCT-116 colon
OVCAR-4 ovarian = system: OVCAR-4 ovarian
UO-31 renal = system: UO-31 renal
A549 NSCLC = system: A549 NSCLC
HCC-2998 colon = system: HCC-2998 colon
ACHN renal = system: ACHN renal
NCI/ADR-RES ovarian = system: NCI/ADR-RES ovarian
SR leukemia = system: SR leukemia
SF-268 CNS = system: SF-268 CNS
MDA-MB-435 = system: MDA-MB-435
RXF 393 renal = system: RXF 393 renal
HCT-15 colon = system: HCT-15 colon
SW-620 colon = system: SW-620 colon
SK-OV-3 ovarian = system: SK-OV-3 ovarian
MDA-MB-231 breast = system: MDA-MB-231 breast
HOP-92 NSCLC = system: HOP-92 NSCLC
MALME-3M melanoma = system: MALME-3M melanoma
CAKI-1 renal = system: CAKI-1 renal
MOLT-4 leukemia = system: MOLT-4 leukemia
SK-MEL-2 melanoma = system: SK-MEL-2 melanoma
HT29 colon = system: HT29 colon
BT-549 breast = system: BT-549 breast
T-47D breast = system: T-47D breast
RPMI-8226 leukemia = system: RPMI-8226 leukemia
IGROV1 ovarian = system: IGROV1 ovarian
CCRF-CEM leukemia = system: CCRF-CEM leukemia
MCF7 breast = system: MCF7 breast
NCI-H226 lung = system: NCI-H226 lung
OVCAR-3 ovarian = system: OVCAR-3 ovarian
TK-10 renal = system: TK-10 renal
KM12 colon = system: KM12 colon
SK-MEL-5 melanoma = system: SK-MEL-5 melanoma
OVCAR-8 ovarian = system: OVCAR-8 ovarian
COLO 205 colon = system: COLO 205 colon
UACC-257 melanoma = system: UACC-257 melanoma
SN12C renal = system: SN12C renal
NCI-H23 lung = system: NCI-H23 lung
SK-MEL-28 melanoma = system: SK-MEL-28 melanoma
NCI-H522 lung = system: NCI-H522 lung
786-0 renal = system: 786-0 renal
DU-145 prostate = system: DU-145 prostate
NCI-H460 lung = system: NCI-H460 lung
OVCAR-5 ovarian = system: OVCAR-5 ovarian
EKVX NSCLC = system: EKVX NSCLC

O=C(CSc1nnc(-c2ccc3nc(-c4ccc(Cl)cc4)[nH]c3c2)o1)Nc1ccc(Br)cc1
GI50 (MDA-MB-468 breast): 5.31 µM
TGI (MDA-MB-468 breast): 17.6 µM
GI50 (UACC-62 melanoma): 4.63 µM
TGI (UACC-62 melanoma): 16.8 µM
GI50 (LOX IMVI melanoma): 1.63 µM
TGI (LOX IMVI melanoma): 2.98 µM
GI50 (U251 CNS): 2.69 µM
TGI (U251 CNS): 6.66 µM
GI50 (M14 melanoma): 2.56 µM
TGI (M14 melanoma): 6.09 µM
GI50 (HL-60(TB) leukemia): 2.91 µM
TGI (HL-60(TB) leukemia): 15.6 µM
GI50 (K-562 leukemia): 3.2 µM
TGI (K-562 leukemia): 15.1 µM
GI50 (SF-539 CNS): 2.86 µM
TGI (SF-539 CNS): 9.19 µM
GI50 (HS 578T breast): 4.09 µM
TGI (HS 578T breast): 24.7 µM
GI50 (PC-3 prostate): 3.28 µM
TGI (PC-3 prostate): 16.6 µM
GI50 (SNB-19 CNS): 4.2 µM
TGI (SNB-19 CNS): 14.6 µM
GI50 (SF-295 CNS): 6.17 µM
TGI (SF-295 CNS): 19.2 µM
GI50 (A498 renal): 18.8 µM
TGI (A498 renal): 34.8 µM
GI50 (SNB-75 CNS): 2.36 µM
TGI (SNB-75 CNS): 14.1 µM
GI50 (HOP-62 NSCLC): 5.96 µM
TGI (HOP-62 NSCLC): 20.2 µM
GI50 (HCT-116 colon): 2.78 µM
TGI (HCT-116 colon): 7.81 µM
GI50 (OVCAR-4 ovarian): 6.65 µM
TGI (OVCAR-4 ovarian): 26.7 µM
GI50 (UO-31 renal): 11.8 µM
TGI (UO-31 renal): 24 µM
GI50 (A549 NSCLC): 3.89 µM
TGI (A549 NSCLC): 19.8 µM
GI50 (HCC-2998 colon): 8.56 µM
TGI (HCC-2998 colon): 20.9 µM
GI50 (ACHN renal): 3.47 µM
TGI (ACHN renal): 12.5 µM
GI50 (NCI/ADR-RES ovarian): 4.31 µM
TGI (NCI/ADR-RES ovarian): 15.7 µM
GI50 (SR leukemia): 9.89 µM
TGI (SR leukemia): > 100 µM
GI50 (SF-268 CNS): 5.66 µM
TGI (SF-268 CNS): 22.3 µM
GI50 (MDA-MB-435): 2.9 µM
TGI (MDA-MB-435): 9.3 µM
GI50 (RXF 393 renal): 2.6 µM
TGI (RXF 393 renal): 8.42 µM
GI50 (HCT-15 colon): 4.18 µM
TGI (HCT-15 colon): 16.3 µM
GI50 (SW-620 colon): 4.99 µM
TGI (SW-620 colon): 18.5 µM
GI50 (SK-OV-3 ovarian): 16.5 µM
TGI (SK-OV-3 ovarian): 31.7 µM
GI50 (MDA-MB-231 breast): 2.37 µM
TGI (MDA-MB-231 breast): 6.07 µM
GI50 (HOP-92 NSCLC): 3.55 µM
TGI (HOP-92 NSCLC): 15.7 µM
GI50 (MALME-3M melanoma): 3.83 µM
TGI (MALME-3M melanoma): 15.4 µM
GI50 (CAKI-1 renal): 3.74 µM
TGI (CAKI-1 renal): 14.9 µM
GI50 (MOLT-4 leukemia): 3.19 µM
TGI (MOLT-4 leukemia): 15.4 µM
GI50 (SK-MEL-2 melanoma): 4.74 µM
TGI (SK-MEL-2 melanoma): 18.4 µM
GI50 (HT29 colon): 5.66 µM
TGI (HT29 colon): 27.3 µM
GI50 (BT-549 breast): 2.66 µM
TGI (BT-549 breast): 6.12 µM
GI50 (T-47D breast): 18.3 µM
TGI (T-47D breast): 65.8 µM
GI50 (RPMI-8226 leukemia): 8.26 µM
TGI (RPMI-8226 leukemia): 86.3 µM
GI50 (IGROV1 ovarian): 10.6 µM
TGI (IGROV1 ovarian): 23 µM
GI50 (CCRF-CEM leukemia): 3.33 µM
TGI (CCRF-CEM leukemia): 20.4 µM
GI50 (MCF7 breast): 3.86 µM
TGI (MCF7 breast): 17.7 µM
GI50 (NCI-H226 lung): 3.45 µM
TGI (NCI-H226 lung): 16 µM
GI50 (OVCAR-3 ovarian): 11.3 µM
TGI (OVCAR-3 ovarian): 28.2 µM
GI50 (TK-10 renal): 20.2 µM
TGI (TK-10 renal): 36.8 µM
GI50 (KM12 colon): 10.4 µM
TGI (KM12 colon): 41.5 µM
GI50 (SK-MEL-5 melanoma): 3.69 µM
TGI (SK-MEL-5 melanoma): 13.6 µM
GI50 (OVCAR-8 ovarian): 3.9 µM
TGI (OVCAR-8 ovarian): 19.4 µM
GI50 (COLO 205 colon): 12.8 µM
TGI (COLO 205 colon): 27.5 µM
GI50 (UACC-257 melanoma): 5.65 µM
TGI (UACC-257 melanoma): 20.5 µM
GI50 (SN12C renal): 2.91 µM
TGI (SN12C renal): 11.2 µM
GI50 (NCI-H23 lung): 2.4 µM
TGI (NCI-H23 lung): 6.17 µM
GI50 (SK-MEL-28 melanoma): 5.04 µM
TGI (SK-MEL-28 melanoma): 17.5 µM
GI50 (NCI-H522 lung): 4.73 µM
TGI (NCI-H522 lung): 19.8 µM
GI50 (786-0 renal): 2.13 µM
TGI (786-0 renal): 4.76 µM
GI50 (DU-145 prostate): 5.83 µM
TGI (DU-145 prostate): 19.1 µM
GI50 (NCI-H460 lung): 2.39 µM
TGI (NCI-H460 lung): 5.78 µM
GI50 (OVCAR-5 ovarian): 14.2 µM
TGI (OVCAR-5 ovarian): 29.5 µM
GI50 (EKVX NSCLC): 9.52 µM
TGI (EKVX NSCLC): 21.6 µM
